This is an account of results in patent US20240082212A1, “USE OF MDMA FOR TREATMENT OF STRESS-RELATED DISORDERS” (priority 2022, published 2024).

One data set relates to C57BL/6J mice. The data set is described as follows: Head twitch response (HTR). The format is in vivo, mouse. Conditions: 30 minutes after injection. As to the method:
Male C57BL/6J mice at 6-8 weeks of age were purchased from Jackson Laboratories and housed four per cage in a climate and humidity-controlled room in a vivarium at the University of California, San Diego. The room operated on a reverse light cycle (lights on at 1900 h, off at 0700 h) with food and water available ad libitum, except during testing. All testing was performed during 1000 h and 1800 h. After a minimum of 1 week acclimation to the housing facility, mice were anesthetized using a mixture of ketamine (100 mg/kg IP) and xylazine (10 mg/kg IP). Under deep anesthesia, an incision was made in the scalp and a small neodymium magnet (4.57 mm×4.57 mm×2.03 mm) was attached to the cranium using cyanoacrylate and dental cement. After at least a 2-week recovery period, the mouse was removed from the home cage and injected intraperitoneally with the test article or vehicle (0.9% sterile saline). Immediately, the mouse was placed in a glass cylinder surrounded by a magnetometer coil and the head twitch response (HTR) was assessed for 30 minutes (Halberstadt and Geyer, 2013). The output of the coil was recorded using a Powerlab/8SP with LabChart v.7.3.2 (ADInstruments). Coil voltage was amplified, low-pass filtered (2-10 kHz cut-off frequency) to remove interference, digitized and sampled at 20 kHz. Head twitches were identified using a validated technique based on artificial intelligence (Halberstadt, 2020). Events in the recordings were transformed into a visual representation in the time-frequency domain and deep features were extracted using the pretrained convolutional neural network ResNet-50, and the images were subsequently classified using a Support Vector Machine algorithm.
Test articles (R,S-MDA, R(−)-MDA, S-(+)MDA), R,S-MDMA, R(−)-MDMA and S(+)-MDMA) were supplied by the NIDA Drug Supply Program as neat powders. Racemic MDA and MDMA and their enantiomers were dissolved in saline and injected IP at a volume of 5 mL/kg. Each dose was calculated based on the salt form of the compounds. For each treatment condition, six groups of mice (n=5-6/group) were treated with vehicle or the test drug (0.1, 0.3, 1, 3, or 10 mg/kg) and HTR assessed for 30 minutes immediately following injections. To avoid carryover effects, each treatment condition was performed at least seven days apart. Total number of mice used for the experiment was 63.

A further data set has as its target Serotonin 5-HT2B (Homo sapiens, UniProt P41595). The data set is described as follows: Eurofins Panlabs radioligand binding panel, serotonin 5-HT2B. Conditions: 10 uM.
Another data set concerns the target T1, Adrenergic α2A (Homo sapiens, UniProt P08913).
T1 sequence (P08913 1-465): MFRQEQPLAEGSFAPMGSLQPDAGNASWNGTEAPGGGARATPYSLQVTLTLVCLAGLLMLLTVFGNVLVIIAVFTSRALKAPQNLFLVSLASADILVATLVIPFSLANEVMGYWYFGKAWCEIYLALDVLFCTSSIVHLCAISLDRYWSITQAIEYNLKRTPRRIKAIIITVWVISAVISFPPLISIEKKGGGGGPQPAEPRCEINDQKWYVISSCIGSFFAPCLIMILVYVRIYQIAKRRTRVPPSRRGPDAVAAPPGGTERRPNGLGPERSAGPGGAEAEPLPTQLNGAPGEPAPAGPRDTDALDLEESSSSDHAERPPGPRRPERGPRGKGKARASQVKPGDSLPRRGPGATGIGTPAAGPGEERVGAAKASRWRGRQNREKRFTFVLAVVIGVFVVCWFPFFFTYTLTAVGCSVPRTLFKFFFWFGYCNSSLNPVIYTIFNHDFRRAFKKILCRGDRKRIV
In words: Eurofins Panlabs radioligand binding panel, adrenergic α2A. Conditions: read-out: % inhibition of binding or activity. As for the experimental part: Each of the compounds was evaluated for binding to 87 different targets as part of a panel (Eurofins Panlabs, Taiwan, China). Each compound was tested at a single concentration of […]. The panel included mostly G-protein-couple receptors, ion channels, enzymes, transporters and nuclear receptors, expressed in the central nervous system, cardiovascular, respiratory, gastrointestinal and renal systems. A limited number of targets were of pig, rat or guinea pig origin. Targets were expressed in human recombinant cells lines, rat brain or spinal cord, guinea pig brain or pig heart. Methods were adapted from the scientific literature to maximize reliability and reproducibility. Reference standards were run as an integral part of each assay to ensure validity of the results obtained (available online at the eurofins website for the safety screen 87 panel).

Another data set concerns cortical neurons. The data set is described as follows: Neurite outgrowth in embryonic rat cortical neuron cultures. The format is cell-based. Conditions: any tested concentration (0.001 to 10000 nM), 3 days, vs vehicle. From the text:
Female Wistar rats of 17 days gestation were killed by cervical dislocation and the fetuses (typically 6 to 8 in number) were removed from the uteri. Fetal brains were placed in ice-cold medium of Leibovitz (L15, Gibco, France). Cortex was dissected and meninges were carefully removed. The cortical neurons were dissociated by trypsinization (trypsin-EDTA, Gibco) in the presence of DNAse I (Roche, France). The reaction was stopped by addition of Dulbecco's Modified Eagle Medium (DMEM; Gibco) with 10% of fetal bovine serum (FBS; Gibco). The suspension was triturated with a 10-ml pipette and a 21-gauge needle syringe and centrifuged. The pellet of dissociated cells was resuspended in a medium consisting of Neurobasal (Gibco) supplemented with 2% B27 supplement (Gibco), 0.5 mM L-Glutamine (Gibco), and an antibiotic-antimycotic mixture. Viable cells were counted in a Neubauer cytometer and cells were seeded in 96-well plates (Costar) precoated with poly-L-lysine at 10,000 cells/well. […] Stock solutions were prepared in sterile water at 10 mM and stored at −20° C. until used. Further dilutions were prepared in culture in the medium on the day of the treatment. 0.1% Sterile water was present in all tested conditions.
The experimental protocol was performed in two independent cultures (i.e., from two different pregnant rats). For each culture, each condition was tested in sextuplet (6 wells per condition per culture for a total of 12 wells per condition). […] After three days of plating and compound treatment (Day 3), cultures were fixed with paraformaldehyde in phosphate buffered saline at 4° C. (PBS, 4%, Sigma). All subsequent steps were performed at room temperature. Cells were successively permeabilized for 30 minutes using 0.1% triton, saturated with PBS containing 3% bovine serum albumin (BSA) and incubated for 1 hour with anti-beta III tubulin antibody (T5168, Sigma). […] Finally, nuclei were stained with 4′-6-diamidino-2-phenylindole (DAPI). After rinsing the cells with PBS, the plate was imaged and neurite networks were examined and analyzed using a High-Content Screening platform (CellInsight CXS, Thermo Scientific) with integrated Photometrics high-resolution fluorescent camera, Olympus objective (10×) and HCS Studio Cell Analysis Software. Approximately 2,000 neurons per well were analyzed using a validated cortex neuron outgrowth algorithm that utilizes parameters optimized for analysis of embryonic rat cortical neuron cultures. The HCS Studio Cell Analysis Software output included values for neurite total count (#), neurite total length (μm) and total number of branch points (#) for each of the 6 wells per culture. The evaluation of neurite outgrowth was performed using the average number of neurites per neuron (#), the average of total neurite length per neuron (μm) and the average number of branch points per neuron (#) across 12 wells. Data also was transformed to percent (%) of the average vehicle control value. Results were expressed as mean (±s.e.m.) of the transformed (% of vehicle control) data. Statistical analyses were performed on transformed percent of the average vehicle control data for each measure for each test article using one-way analysis of variance (Anova, StatView). Where applicable, Dunnett's test was used for multiple pairwise comparisons to the negative control (vehicle) condition. […] The level of significance was set at p value less than or equal to 0.05 (*p<0.05).

The nature of data set [1]: Rat plasma pharmacokinetics after cumulative (QID) SC injections. Conditions: for Cmax: metabolite after QID SC parent (R-MDA after R-MDMA, S-MDA after S-MDMA, total MDA after Rac-MDMA).
The next data set deals with T2, Serotonin 5-HT1A (Homo sapiens, UniProt P08908).
T2 sequence (P08908 1-422): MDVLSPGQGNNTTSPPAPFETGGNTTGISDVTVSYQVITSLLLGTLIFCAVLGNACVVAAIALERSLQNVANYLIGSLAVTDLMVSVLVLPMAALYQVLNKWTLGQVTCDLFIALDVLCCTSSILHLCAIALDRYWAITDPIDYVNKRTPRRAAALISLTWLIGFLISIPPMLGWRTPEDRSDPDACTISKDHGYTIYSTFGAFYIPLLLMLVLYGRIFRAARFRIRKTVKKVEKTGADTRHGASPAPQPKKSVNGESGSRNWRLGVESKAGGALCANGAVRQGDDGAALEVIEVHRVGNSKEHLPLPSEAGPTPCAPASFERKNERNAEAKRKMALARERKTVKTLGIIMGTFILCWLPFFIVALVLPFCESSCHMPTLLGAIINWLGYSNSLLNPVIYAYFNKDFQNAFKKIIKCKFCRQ
The data set is described as follows: Eurofins Panlabs radioligand binding panel, serotonin 5-HT1A. Conditions: 10 uM.

[2] abbreviates: male rat plasma, metabolite after QID SC parent, total 10 mg/kg/day.
[3] abbreviates: male rat plasma, metabolite after QID SC parent, total 20 mg/kg/day.

Each structure is given as a SMILES string.

Sequence of Serotonin 5-HT2B (P41595 whole entry): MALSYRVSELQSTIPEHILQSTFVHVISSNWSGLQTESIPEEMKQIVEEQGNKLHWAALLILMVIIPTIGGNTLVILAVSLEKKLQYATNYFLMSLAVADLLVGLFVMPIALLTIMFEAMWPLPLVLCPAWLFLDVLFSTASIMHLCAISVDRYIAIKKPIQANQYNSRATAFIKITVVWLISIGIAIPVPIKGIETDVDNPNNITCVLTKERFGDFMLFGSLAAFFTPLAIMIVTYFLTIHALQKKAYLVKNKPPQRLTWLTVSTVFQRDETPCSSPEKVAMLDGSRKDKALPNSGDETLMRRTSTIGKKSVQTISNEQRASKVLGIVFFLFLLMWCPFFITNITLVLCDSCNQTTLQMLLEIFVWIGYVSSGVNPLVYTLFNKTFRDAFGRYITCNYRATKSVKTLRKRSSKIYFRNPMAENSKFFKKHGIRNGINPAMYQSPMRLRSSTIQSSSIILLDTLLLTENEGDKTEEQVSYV

With `CC(N)Cc1ccc2c(c1)OCO2` (racemic) [Racemic MDA, 3,4-methylenedioxyamphetamine], the “head twitch response (HTR) compared to control (vehicle)” value in the data set with C57BL/6J mice (3 mg/kg IP) was “increased HTR”. Besides, on Serotonin 5-HT2B (read-out: % inhibition of binding or activity), the inhibition at 10 µM is 89%. Further, the inhibition at 10 µM at Adrenergic α2A is 53%. In the data set on cortical neurons, the “neurite number (#)” value is given as “did not significantly alter”, the “neurite total length (μm)” value is reported as “did not significantly alter” and the “total number of branch points (#)” value was “did not significantly alter”.

`C[C@@H](N)Cc1ccc2c(c1)OCO2` [R-MDA, R(−)-MDA]: in data set [1] (dose increase from 10 to 20 mg/kg/day of the dosed test article, QID SC), the “dose dependence of Cmax and AUC0-27 hr” value is on record as “approximately dose proportional manner”. In data set [1] (male rat plasma, total 10 mg/kg/day), the Cmax was 127 ng/mL. For the same compound, the Cmax in data set [1] (male rat plasma, total 20 mg/kg/day) is listed as 272 ng/mL. For the same compound, in data set [1] (setting [2]), the AUC0-27 hr was found to be 813 ng·h/mL, the “AUC0-27 hr/Dose” value is 81.3 *kg*ng/mL/mg, the AUCTlast stood at 716 ng·h/mL and the Cmax/Dose came to 12.7 kg·ng/mL/mg. Besides, in data set [1] (setting [2]), the Tlast was 11 h and the Tmax turned out to be 5 h. Besides, in data set [1] (setting [3]), the AUC0-27 hr was 2410 ng·h/mL, the “AUC0-27 hr/Dose” value was 121 *kg*ng/mL/mg, the AUCTlast was 1810 ng·h/mL and the Cmax/Dose was determined as 13.6 kg·ng/mL/mg. Besides, in data set [1] (setting [3]), the T1/2 was 2.67 h, the Tlast is 11 h and the Tmax stood at 5 h. Further, the “% inhibition of binding or activity” value on Serotonin 5-HT1A turned out to be 50%. Moreover, the “head twitch response (HTR) compared to control (vehicle)” value in the data set with C57BL/6J mice (1 mg/kg IP) is given as “elicited an increase in HTR”. Moreover, in the data set on C57BL/6J mice (3 mg/kg IP), the “head twitch response (HTR) compared to control (vehicle)” value was “elicited an increase in HTR”. For the same compound, the “head twitch response (HTR) compared to control (vehicle)” value in the data set on C57BL/6J mice (10 mg/kg IP) is given as “elicited an increase in HTR”. Also, on Serotonin 5-HT2B, the “% inhibition of binding or activity” value is on record as 88%. Moreover, in the data set with cortical neurons, the “neurite number (#)” value is “did not significantly alter”, the “neurite total length (μm)” value is recorded as “did not significantly alter” and the “total number of branch points (#)” value is listed as “did not significantly alter”.
